Reference: patent publication US20260193311A1, “METHODS AND COMPOSITIONS FOR STIMULATION OF CHIMERIC ANTIGEN RECEPTOR T CELLS WITH HAPTEN LABELLED CELLS” (Seattle Children's Hospital (dba Seattle Children's …, priority 2018, published 2026)

Assays:
CD19+ Raji cells = experiment: flow cytometry for presence of FL on hapten-labeled cells; assay type: cell-based
Experimental: Hapten-labeled cells were prepared by either attaching the hapten, fluorescein (FL), to the cells via an integrated phospholipid or via an antibody. CD19+ Raji cells (lymphoma cell line) were incubated either overnight with 5 μM FL-DHPE (FIG. 3B), or for 20 min with an antiCD19 antibody labeled with fluorescein isothiocyanate (FITC). The cells were washed, stained, and analyzed by flow cytometry for the presence of FL. […] The levels of FL were higher for cells treated with FL-DHPE compared to cells treated with the antiCD19 antibody (FIG. 4A). This was consistent with different tethering techniques providing different levels of hapten on the surface of a cell.

[1] = tested on: CD19+K562 cells (hapten-labeled); experiment: cytokine release assay of antiFL CAR T cells against hapten-labelled cells; assay type: cell-based; settings: target cells prepared with 5 μM FL-DHPE
Experimental: Hapten-labeled cells were prepared. CD19^+K562 cells were incubated either overnight with 5 μM FL-DHPE or for 20 min with an CD19 antibody labeled with FITC. The hapten-labeled cells were incubated with either one of two antiFL CAR T cells (FITC-E2 scFv, or 4M5.3 scFv). […] Hudecek M, et al., (2013) Clin Cancer Res. 19:3153-64, which is incorporated by reference in its entirety.
The levels of cytokines released by the antiFL CAR T cells were determined. […] The levels of released IFN-7, and TNF-α were lower for hapten-labeled cells contacted with the antiFL(4M5.3) CART cell. Also, there was a trend for hapten-labeled cells prepared with FL-DHPE inducing higher levels of cytokine release compared to hapten-labeled cells prepared with an CD19 antibody labeled with FITC.

CCCCCCCCCCCCCCCC(=O)OCC(COP(=O)(O)OCCNC(=S)Nc1ccc2c(c1)C(=O)OC21c2ccc(O)cc2Oc2cc(O)ccc21)OC(=O)CCCCCCCCCCCCCCC (stereo not drawn) [FL-DHPE, N-(Fluorescein-5-Thiocarbamoyl)-1,2-Dihexadecanoyl-sn-Glycero-3-Phosphoethanolamine]
presence of FL, shift compared to untreated control cells (CD19+ Raji cells; 5 μM FL-DHPE overnight): positive shift
levels of FL compared to cells treated with the antiCD19 antibody (CD19+ Raji cells; 5 μM FL-DHPE overnight vs antibody 20 min): higher
cytokine release compared to hapten-labeled cells prepared with CD19 antibody labeled with FITC (trend) [1]: higher levels
